Among the test systems are SF-268; MOLT-4; 786-0; UACC-62; CAKI-1; COLO 205; M19-MEL; UACC-257; SNB-75; KM12; SK-MEL-5; OVCAR-5; Malme-3M; MDA-N; HCC 2998; PC-3; HL-60; DU-145; BT-549; MCF7.
What all share (test): inhibition of tumour cell growth, NCI panel, 48 h

From ChEMBL document CHEMBL1201862, “PubChem BioAssay data set” (2004) come the findings set out here.

Structures are written as SMILES.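 Method: 48-hour compound exposure of cells in 96-well plates, five concentrations, linear interpolation of endpoints. Here, GI50 denotes the concentration required for 50% inhibition of growth.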 The source made the active and inactive calls. Rule as the data show it: active = GI50 up to about 1.1 µM and inactive = higher.

As for `COc1ccc([C@H]2CC(=O)NCCCCN2)cc1`, the GI50 in the assay on SF-268, in the assay with MOLT-4, in the assay with 786-0, with UACC-62, in the assay on CAKI-1 and with COLO 205 was > 100 µM (inactive) in each case. Also, the GI50 with M19-MEL was > 100 µM (inactive); in the assay on UACC-257 it was > 100 µM (inactive); in the assay on SNB-75, 55.2 µM (inactive); in the assay on KM12, > 100 µM (inactive); in the assay with SK-MEL-5, > 100 µM (inactive); in the assay on OVCAR-5, > 100 µM (inactive). For the same molecule, the GI50 in the assay with Malme-3M was > 100 µM (inactive).

Take `COC(=O)C1=C(C)NC(C)=C([N+](=O)[O-])C1c1cccc(NO)c1` (configuration not stated): the GI50 in the assay with MDA-N is 1.79 µM (inactive); in the assay with SF-268 it was 6.01 µM (inactive); in the assay with MOLT-4 it was 3.46 µM (inactive); in the assay with HCC 2998, 4.53 µM (inactive); in the assay on 786-0, 4.48 µM (inactive); with UACC-62, 6.55 µM (inactive). Besides, the GI50 in the assay with PC-3 was 2.94 µM (inactive); in the assay with CAKI-1 it was 8.38 µM (inactive); with COLO 205, 2.06 µM (inactive); in the assay with UACC-257, 4.61 µM (inactive); in the assay with HL-60, 2.8 µM (inactive); in the assay with SNB-75, 6.89 µM (inactive). Besides, the GI50 in the assay on KM12 was 2.54 µM (inactive); in the assay on SK-MEL-5 it was 2.72 µM (inactive); in the assay on DU-145, 6.67 µM (inactive); in the assay on OVCAR-5 it was 14.7 µM (inactive); in the assay on Malme-3M it was 4.31 µM (inactive); with BT-549, 4.51 µM (inactive). Also, the GI50 in the assay with MCF7 is 3.94 µM (inactive).

In the case of `Cc1c(Cl)cc(C(C)(C)C)c(O)c1Cc1c(C)c(Cl)cc(C(C)(C)C)c1O`, the GI50 was 2.18 µM (inactive) in the assay with MDA-N; 1.74 µM (inactive) in the assay on SF-268; 0.818 µM (active) with MOLT-4; 0.796 µM (active) in the assay on HCC 2998; 1.73 µM (inactive) with 786-0; 1.62 µM (inactive) with UACC-62. The GI50 in the assay with PC-3 is 1.64 µM (inactive); in the assay with CAKI-1, 1.32 µM (inactive); in the assay with COLO 205, 1.12 µM (active); in the assay on UACC-257, 1.36 µM (inactive); in the assay on HL-60 it was 1.17 µM (inactive); with SNB-75, 1.5 µM (inactive). In addition, the GI50 with KM12 was 1.44 µM (inactive); in the assay on SK-MEL-5, 0.762 µM (active); in the assay on DU-145, 1.96 µM (inactive); in the assay with OVCAR-5, 3.43 µM (inactive); with Malme-3M, 0.406 µM (active); in the assay on BT-549, 2.81 µM (inactive). The GI50 in the assay on MCF7 is 1 µM (active).

As for `Cc1cccc(-c2nc3ccc([N+](=O)[O-])cc3c(=O)o2)c1`, the GI50 in the assay with MDA-N is > 100 µM (inactive); in the assay with SF-268 it was 60.3 µM (inactive); with MOLT-4, 27.6 µM (inactive); with HCC 2998, > 100 µM (inactive); in the assay with 786-0 it was 48.8 µM (inactive); in the assay on UACC-62 it was 21.1 µM (inactive). In addition, the GI50 in the assay with PC-3 was 58.5 µM (inactive); in the assay on CAKI-1, > 100 µM (inactive); in the assay with COLO 205, > 100 µM (inactive); in the assay with UACC-257, 64.3 µM (inactive); in the assay with HL-60, 59.7 µM (inactive); with SNB-75, > 100 µM (inactive). For the same molecule, the GI50 was 90.6 µM (inactive) in the assay with KM12; > 100 µM (inactive) in the assay on SK-MEL-5; 59.8 µM (inactive) with DU-145; > 100 µM (inactive) with OVCAR-5; 51.4 µM (inactive) in the assay with Malme-3M; 51.4 µM (inactive) in the assay on BT-549. Also, the GI50 in the assay on MCF7 is 62.5 µM (inactive).

On to `CC1CC2(OC2C)C(=O)OC2CCN(C)C/C=C(/COC(=O)C1(C)O)C2=O` (configuration not stated), for which the GI50 in the assay on MDA-N is > 100 µM (inactive); in the assay with SF-268, > 100 µM (inactive); with MOLT-4, > 10 µM (inactive); in the assay with HCC 2998 it was > 100 µM (inactive); in the assay on 786-0 it was > 100 µM (inactive); with UACC-62, > 100 µM (inactive). For the same molecule, the GI50 with PC-3, in the assay on CAKI-1, with COLO 205, in the assay with UACC-257, in the assay on HL-60 and in the assay with SNB-75 was > 100 µM (inactive) in each case. Moreover, the GI50 with KM12, in the assay on SK-MEL-5, in the assay on DU-145, in the assay with OVCAR-5, in the assay on Malme-3M and in the assay with BT-549 was > 100 µM (inactive) throughout. The GI50 in the assay on MCF7 was > 100 µM (inactive).

On to `C[C@]12CC[C@H](O)C=C1CC[C@@H]1[C@@H]2CC[C@]2(C)C(=N/O)/C(=C/c3ccncc3)C[C@@H]12`, for which the GI50 was 9.51 µM (inactive) in the assay on MDA-N; 15.2 µM (inactive) in the assay with SF-268; 4.43 µM (inactive) with MOLT-4; 3.84 µM (inactive) with HCC 2998; 12.9 µM (inactive) with 786-0; 5.98 µM (inactive) in the assay on UACC-62. The GI50 with PC-3 was 2.65 µM (inactive); with CAKI-1, 14.9 µM (inactive); with COLO 205, 11.7 µM (inactive); with UACC-257 it was 7.67 µM (inactive); in the assay on HL-60, < 0.01 µM (active); with SNB-75, 14.4 µM (inactive). In addition, the GI50 in the assay with KM12 is 8 µM (inactive); in the assay with SK-MEL-5, 5.01 µM (inactive); in the assay with DU-145, 6.34 µM (inactive); with OVCAR-5, 19.2 µM (inactive); in the assay on Malme-3M, 17.5 µM (inactive); in the assay with BT-549, 20 µM (inactive). Also, the GI50 in the assay with MCF7 was 3.87 µM (inactive).

For the molecule `CCOC(=O)c1ccc(C(=O)OCC)n1-c1cc2cc(c1)CSCc1cc(cc(-n3c(C(=O)OCC)ccc3C(=O)OCC)c1)CSC2`, the GI50 in the assay on MDA-N, in the assay on SF-268, in the assay with MOLT-4, in the assay with HCC 2998, in the assay with 786-0 and in the assay on UACC-62 was > 10 µM (inactive) each time. In addition, the GI50 with PC-3, with CAKI-1, in the assay with COLO 205, in the assay on UACC-257, with HL-60 and in the assay on SNB-75 was > 10 µM (inactive) throughout. For the same molecule, the GI50 in the assay on KM12, in the assay with SK-MEL-5, in the assay with DU-145, in the assay with OVCAR-5, with Malme-3M and in the assay on BT-549 was > 10 µM (inactive) in each case. In addition, the GI50 in the assay with MCF7 is > 10 µM (inactive).

Turning to `C/C(=N/OC(=O)c1cccc2c(=O)c3ccccc3[nH]c12)[C@H]1CC[C@H]2[C@@H]3CCC4=C/C(=N/OC(=O)c5cccc6c(=O)c7ccccc7[nH]c56)CC[C@]4(C)[C@H]3CC[C@]12C`, the GI50 in the assay with MDA-N was 14.1 µM (inactive); in the assay with SF-268, 17 µM (inactive); in the assay with MOLT-4, 10.4 µM (inactive); in the assay on HCC 2998, 14 µM (inactive); in the assay on 786-0 it was 18.5 µM (inactive); with UACC-62 it was 14.1 µM (inactive). For the same molecule, the GI50 was 10.5 µM (inactive) in the assay on PC-3; 21.2 µM (inactive) in the assay with CAKI-1; 15.8 µM (inactive) in the assay on COLO 205; 17.1 µM (inactive) with UACC-257; 3.91 µM (inactive) with HL-60; 29.9 µM (inactive) in the assay on SNB-75. The GI50 in the assay with KM12 is 15.2 µM (inactive); in the assay on SK-MEL-5 it was 13.1 µM (inactive); in the assay with DU-145, 22.7 µM (inactive); in the assay with OVCAR-5, 17.4 µM (inactive); in the assay with Malme-3M it was 22.2 µM (inactive); in the assay with BT-549 it was 17.7 µM (inactive). In the assay with MCF7, the GI50 was 11.2 µM (inactive).

Turning to `Cc1ccc(/C=N/Nc2ccccn2)s1`, the GI50 in the assay on MDA-N was > 54 µM (inactive); in the assay with SF-268, > 64.6 µM (inactive); in the assay with MOLT-4, > 100 µM (inactive); with HCC 2998, > 100 µM (inactive); in the assay with 786-0, > 54.7 µM (inactive); in the assay with UACC-62, > 100 µM (inactive). Moreover, the GI50 in the assay on PC-3 is > 100 µM (inactive); in the assay on CAKI-1, > 100 µM (inactive); in the assay with COLO 205, > 100 µM (inactive); in the assay with UACC-257, > 100 µM (inactive); with HL-60 it was > 76.7 µM (inactive); with SNB-75, 36.7 µM (inactive). Also, the GI50 was > 100 µM (inactive) with KM12; > 100 µM (inactive) with SK-MEL-5; > 100 µM (inactive) in the assay with DU-145; > 100 µM (inactive) in the assay on OVCAR-5; > 100 µM (inactive) in the assay on Malme-3M; 81.3 µM (inactive) with BT-549. Besides, the GI50 in the assay on MCF7 is 21.1 µM (inactive).

For `COc1nc(NC2OC(COC(C)=O)C(OC(C)=O)C(OC(C)=O)C2OC(C)=O)c(-c2csc(N)n2)c(=O)n1C` (configuration not stated), the GI50 in the assay on SF-268 is 25.9 µM (inactive); in the assay with MOLT-4, > 100 µM (inactive); in the assay with 786-0, 20.5 µM (inactive); in the assay on UACC-62, 33.7 µM (inactive); in the assay with CAKI-1, 32.3 µM (inactive); in the assay on COLO 205, > 100 µM (inactive). Further, the GI50 in the assay with M19-MEL was 36.5 µM (inactive); with UACC-257 it was 58.3 µM (inactive); with SNB-75 it was 18.4 µM (inactive); in the assay with KM12, > 100 µM (inactive); with SK-MEL-5, 43.3 µM (inactive); with OVCAR-5 it was > 100 µM (inactive). Moreover, the GI50 in the assay on Malme-3M was 26.8 µM (inactive).

Regarding `O=P(O)(O)CC1OC(CO)C(O)C1O` (configuration not stated), the GI50 in the assay on MDA-N, with SF-268, in the assay on MOLT-4, in the assay with HCC 2998, in the assay on 786-0 and in the assay with UACC-62 was > 100 µM (inactive) in each case. Also, the GI50 with PC-3, with CAKI-1, with COLO 205, with UACC-257, with HL-60 and in the assay on SNB-75 was > 100 µM (inactive) throughout. The GI50 in the assay with KM12, in the assay on SK-MEL-5, with DU-145, in the assay on OVCAR-5, in the assay with Malme-3M and in the assay with BT-549 was > 100 µM (inactive) in each case. Further, the GI50 in the assay on MCF7 is > 100 µM (inactive).
